Data from PMC7221086, “Trefoil factors share a lectin activity that defines their role in mucus” (Nature Communications, 2020).
Positions count from the first letter of the chain named. Where no end group is shown, it is not given here.

Tests used:
[1] = system: pMucinred (reduced and alkylated pMucin); assay: TFF-mucin ELISA on pMucinred; format: binding, porcine; conditions: immobilised pMucinred, Strep-HRP detection
Description: (§1) A 50 mg ml^−1 stock of pMucin was prepared by resuspending porcine gastric mucin type III (Sigma) in PBS + 50 mM EDTA + 0.02% NaN3. This pMucin (1 ml) was dialysed (100 kDa NMWL) against 4 M guanidium hydrochloride (2 × 2.0 l) over 48 h at 4 °C. Precipitate was removed by centrifugation (8000×g, 20 min, 4 °C) and the soluble supernatant dialysed (100 kDa NMWL) against PBS (2 × 2.0 l) over 48 h at 4 °C. Half of this sample was treated with 50 µg ml^−1 CpGH89[29] at 30°C for 16 h. Both mucin samples were reduced with 10 mM DTT (30 min, 50 °C) then alkylated by the addition of 30 mM iodoacetamide (30 min, 50 °C). These samples were dialysed (100 kDa NMWL) against PBS (2 × 2.0 l) over 48 h at 4 °C. The concentration of all three mucin stock solutions were standardised to A280 = 1.5 using PBS. These samples were aliquoted, flash frozen in liquid N2 and stored at −80 °C.
(§2) A solution of pMucin, pMucinred or pMucinred+GH89 (100 µl, 1 µg ml^−1) in 100 mM bicarbonate buffer pH 9.4, was added to each well of a 96-well plate (flat-bottom Nunc MaxiSorp, ThermoFisher) and the plate gently nutated for 2 h at 25 °C. The wells were rinsed four times with 200 µl PBS-T (50 mM NaPi pH 7.4, 150 mM NaCl, 0.2% Tween-20) then blocked for 1 h at 25 °C with blocking buffer (50 mM NaPi pH 7.4, 150 mM NaCl, 5% w/v BSA). The wells were rinsed four times with 200 µl PBS-T then incubated with 100 µl blocking buffer containing TFF (various concentrations) and 1:1000 Strep-HRP (ThermoFisher) for 1 h at 25 °C. The wells were rinsed four times with 200 µl PBS-T then developed by adding 100 µl of TMB-Turbo (ThermoFisher) and incubated for 30 min at 25 °C. The reaction was quenched by the addition of 100 µl of 2 M H2SO4. Absorbance at 450 nm was read within 20 min using an EnVision 2105 Multimode Plate Reader (PerkinElmer). Data was analysed using Prism 8 (GraphPad).

[2] = system: pMucinred+GH89 (pMucinred treated with CpGH89); assay: TFF-mucin ELISA on pMucinred+GH89; format: binding, porcine; conditions: immobilised GH89-treated mucin, Strep-HRP detection
Description: as §1, §2

[3] = system: pMucin (porcine gastric mucin); assay: TFF-mucin ELISA on pMucin; format: binding; conditions: immobilised pMucin, Strep-HRP detection
Description: as §1, §2

[4] = target: reduced and alkylated pMucin; assay: ELISA; conditions: read off a plot
[5] = target: T1, mTFF1 (human TFF1, monomeric) (Homo sapiens, UniProt P04155); assay: Isothermal titration calorimetry of glycans against mTFF1; format: binding; conditions: ITC, pH 7.4, 25 °C; TFF1
T1 construct: PelB signal peptide (N, cleaved yes); His6 (C, cleaved yes); made in house; host or cells: E. coli T7 Express, periplasmic extraction
T1 sequence (P04155 with tags, fused parts or gaps): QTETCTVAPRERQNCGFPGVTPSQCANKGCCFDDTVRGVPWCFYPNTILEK
Description: (§3) All TFF and ligand stock solutions were prepared in the same buffer (50 mM HEPES, 50 mM NaCl, pH 7.4) and filtered (0.22 µm) just prior to titration. All control and non-binding ligand experiments were performed as 12 × 3.18 µl injections. For experiments with GlcNAc-α-1,4-Gal (Carbosynth), 25 × 1.58 µl injections were used. All runs were performed at 25 °C in a MicroCal iTC200 (Malvern).
(§4) Supplementary Table 2: Parameters used for ITC and thermodynamic terms determined for
(§5) GlcNAc-α-1,4-Gal binding to the TFFs. Data are presented as mean values ±SD for three
(§6) Protein GlcNAc-α- T n Kd ΔH ΔS -TΔS ΔG
(§7) (30 µM) 1,4-Gal (µM) (℃) (µM) (kcal · mol-1) (cal · mol-1 · K-1) (kcal · mol-1) (kcal · mol-1)

[6] = target: T2, TFF2 (human TFF2) (Homo sapiens, UniProt Q03403, N38Q); assay: Isothermal titration calorimetry of glycans against TFF2; format: binding; conditions: ITC, pH 7.4, 25 °C; TFF2
T2 construct: with an N-terminal gp67 signal peptide and a C-terminal His10-tag; gp67 signal peptide (N, cleaved yes); made in house; host or cells: Sf21 insect cells (baculovirus), secreted
T2 sequence (Q03403 24-129 N38Q): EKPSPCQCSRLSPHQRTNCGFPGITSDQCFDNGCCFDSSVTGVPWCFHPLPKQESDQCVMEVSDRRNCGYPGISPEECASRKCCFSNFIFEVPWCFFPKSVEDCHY
Description: as §3, §4, §5, §6, §7

[7] = target: T3, mTFF3 (human TFF3, monomeric) (Homo sapiens, UniProt Q07654, C78S); assay: Isothermal titration calorimetry of glycans against mTFF3; format: binding; conditions: ITC, pH 7.4, 25 °C; TFF3
T3 construct: with an N-terminal PelB signal peptide, no interchain Cys, and a C-terminal His6-tag; PelB signal peptide (N, cleaved yes); His6 (C, cleaved yes); made in house; host or cells: E. coli T7 Express, periplasmic extraction
T3 sequence (Q07654 22-80 C78S): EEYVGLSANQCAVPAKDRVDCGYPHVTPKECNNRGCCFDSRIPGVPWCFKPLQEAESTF
Description: as §3, §4, §5, §6, §7

[8] = target: commercially-available porcine gastric mucin (porcine)

mTFF1bio: site-selectively biotinylated monomeric TFF1 ({Avi‑tag(biotin)}-EAQTETCTVAPRERQNCGFPGVTPSQCANKGCCFDDTVRGVPWCFYPNTIDVPPEEECEF; also: one free cysteine, interchain disulfide not formed)
binding / affinity to pMucinred by ELISA [1]: robust binding
binding to pMucinred+GH89 by ELISA [2]: no significant binding
binding to pMucin by ELISA [3]: robust binding

biotinylated dimeric TFF1 (from UniProt P04155) N14A
response (Abs. @ 450 nm) ([4]; 25 nM TFF, parent: est. 1.3): 0.68
response (Abs. @ 450 nm) ([4]; 1000 nM TFF, parent: est. 1.3): 1

OC[C@H]1O[C@H](O[C@H]2[C@H](O)[C@@H](O)[C@H](O)O[C@@H]2CO)[C@H](O)[C@@H](O)[C@@H]1O [maltose]
affinity by ITC [5]: failed to show any affinity
affinity by ITC [6]: failed to show any affinity
affinity by ITC [7]: failed to show any affinity

CC(=O)N[C@H]1C(O)O[C@H](CO)[C@@H](O)[C@@H]1O (stereo partly drawn) [D-GlcNAc]
affinity by ITC [5]: no detectable affinity
affinity by ITC [6]: no detectable affinity
affinity by ITC [7]: no detectable affinity

biotinylated dimeric TFF3 (from UniProt Q07654) D20A
response (Abs. @ 450 nm) ([4]; 25 nM TFF, parent: est. 1.2): 0.04
response (Abs. @ 450 nm) ([4]; 1000 nM TFF, parent: est. 1.2): 0.095

mTFF3bio: site-selectively biotinylated monomeric TFF3 ({Avi‑tag(biotin)}-EEYVGLSANQCAVPAKDRVDCGYPHVTPKECNNRGCCFDSRIPGVPWCFKPLQEAECTF; also: one free cysteine, interchain disulfide not formed)
binding / affinity to pMucinred by ELISA [1]: robust binding
binding to pMucinred+GH89 by ELISA [2]: no significant binding
binding to pMucin by ELISA [3]: robust binding

dTFF1bio: biotinylated dimeric TFF1 construct, wild type ({Avi‑tag(biotin)}-EAQTETCTVAPRERQNCGFPGVTPSQCANKGCCFDDTVRGVPWCFYPNTIDVPPEEECEF; also: homodimer via interchain disulfide, Cys not given here)
binding to pMucinred+GH89 by ELISA [2]: does not bind

CC(=O)N[C@H]1[C@@H](OCc2ccccc2)O[C@H](CO)[C@@H](O)[C@@H]1O [benzyl α-D-GlcNAc]
affinity by ITC [5]: no detectable affinity
affinity by ITC [6]: no detectable affinity
affinity by ITC [7]: no detectable affinity

biotinylated dimeric TFF1 (from UniProt P04155) W41A
response (Abs. @ 450 nm) ([4]; 25 nM TFF, parent: est. 1.3): 0.06
response (Abs. @ 450 nm) ([4]; 1000 nM TFF, parent: est. 1.3): 0.045

CC(=O)N[C@H]1[C@@H](Oc2ccc([N+](=O)[O-])cc2)O[C@H](CO)[C@@H](O)[C@@H]1O [4-nitrophenyl α-D-GlcNAc]
affinity by ITC [5]: no detectable affinity
affinity by ITC [6]: no detectable affinity
affinity by ITC [7]: no detectable affinity

dTFF3bio-W47A: biotinylated dimeric TFF3 with W47A mutation ({Avi‑tag(biotin)}-EEYVGLSANQCAVPAKDRVDCGYPHVTPKECNNRGCCFDSRIPGVPACFKPLQEAECTF; also: homodimer via interchain disulfide, Cys not given here)
binding / affinity to pMucinred by ELISA [1]: completely inactive

biotinylated dimeric TFF3 (from UniProt Q07654) W47A
response (Abs. @ 450 nm) ([4]; 25 nM TFF, parent: est. 1.2): 0.035
response (Abs. @ 450 nm) ([4]; 1000 nM TFF, parent: est. 1.2): 0.04

dTFF3bio-D20A: biotinylated dimeric TFF3 with D20A mutation ({Avi‑tag(biotin)}-EEYVGLSANQCAVPAKDRVACGYPHVTPKECNNRGCCFDSRIPGVPWCFKPLQEAECTF; also: homodimer via interchain disulfide, Cys not given here)
binding / affinity to pMucinred by ELISA [1]: barely any detectable affinity

OC[C@H]1O[C@H](O[C@@H]2[C@H](O)[C@@H](O)C(O)O[C@@H]2CO)[C@H](O)[C@@H](O)[C@H]1O (stereo partly drawn) [Gal-α-1,4-Gal]
affinity by ITC [5]: failed to show any affinity
affinity by ITC [6]: failed to show any affinity
affinity by ITC [7]: failed to show any affinity

B1: biotinylated dimeric TFF3 (natural protein)
chain: T3 sequence (Q07654 22-80 C78S) with S57C
modifications: also: dimer via interchain disulfide, biotin on Avi-tag (BirA), tag not in chain
EC50 of the glycoside hydrolase CpGH89 (0-512 nM, 20 h, 30 °C) for liberating bound dTFF3bio from immobilised pMucin, read by ELISA [8]: 0.4 nM

B2: TFF2bio: biotinylated TFF2, positive control (protein)
chain: T2 sequence (Q03403 24-129 N38Q) with Q15N
modifications: biotin, non-specific (EZ-Link NHS-PEG4-biotin); left off: His10, C-terminal, state not stated
notes: biotinylated TFF2, positive control
binding / affinity to pMucinred by ELISA [1]: robust binding
binding to pMucinred+GH89 by ELISA [2]: no significant binding
binding to pMucin by ELISA [3]: robust binding

B3: biotinylated dimeric TFF1 (natural protein)
chain: EAQTETCTVAPRERQNCGFPGVTPSQCANKGCCFDDTVRGVPWCFYPNTIDVPPEEECEF
modifications: also: dimer via interchain disulfide, biotin on Avi-tag (BirA), tag not in chain
EC50 of the glycoside hydrolase CpGH89 (0-512 nM, 20 h, 30 °C) for liberating bound dTFF1bio from immobilised pMucin, read by ELISA [8]: 0.8 nM
